{
  "source": "paper PMC11904713",
  "about": "(ACS Omega, 2025)",
  "key": {"[1]": {"experiment": "FRAP activity", "settings": "CUR-IPA 50 to 250 μM; ascorbic acid 2 to 10 μM"}, "[2]": {"experiment": "DPPH radical scavenging activity", "settings": "read-out: IC50, DPPH radical scavenging"}, "[3]": {"experiment": "ABTS radical scavenging activity", "settings": "read-out: IC50, ABTS radical scavenging"}, "[4]": {"biological_target": "T1, BChE (Homo sapiens, UniProt P06276)", "T1 sequence (P06276 29-602)": "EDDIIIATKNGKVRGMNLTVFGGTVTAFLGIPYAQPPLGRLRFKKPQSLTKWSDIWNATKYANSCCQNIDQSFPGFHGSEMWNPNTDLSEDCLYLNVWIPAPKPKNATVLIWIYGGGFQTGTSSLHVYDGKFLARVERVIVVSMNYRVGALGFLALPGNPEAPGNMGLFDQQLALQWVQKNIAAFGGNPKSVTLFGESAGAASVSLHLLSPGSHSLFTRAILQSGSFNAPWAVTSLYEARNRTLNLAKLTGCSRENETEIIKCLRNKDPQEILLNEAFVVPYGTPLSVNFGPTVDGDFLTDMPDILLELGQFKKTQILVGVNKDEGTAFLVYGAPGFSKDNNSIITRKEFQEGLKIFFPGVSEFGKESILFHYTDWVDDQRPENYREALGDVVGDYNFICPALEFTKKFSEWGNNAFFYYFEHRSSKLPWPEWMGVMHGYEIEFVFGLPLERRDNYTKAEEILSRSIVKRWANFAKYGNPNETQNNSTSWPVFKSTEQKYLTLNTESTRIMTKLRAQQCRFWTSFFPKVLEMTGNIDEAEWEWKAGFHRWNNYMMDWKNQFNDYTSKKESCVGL", "experiment": "BChE inhibition by IPA", "format": "biochemical", "settings": "data not shown"}, "[5]": {"tested_on": "AChE", "experiment": "AChE inhibition by IPA", "format": "biochemical", "settings": "data not shown"}, "[6]": {"biological_target": "T1, BChE", "settings": "previous study; cited from earlier work"}, "[7]": {"tested_on": "rat cerebral cortex AChE", "settings": "read-out: IC50, rat cerebral cortex AChE; cited from earlier work"}, "[8]": {"tested_on": "eAChE", "settings": "read-out: IC50 against eAChE, cited from earlier work"}, "[9]": {"tested_on": "AChE", "settings": "cited from earlier work"}, "[10]": {"settings": "pH 7.3 (physiological pH); cited from earlier work"}},
  "note": "Where two headings read alike, the source gives them in different places.",
  "data": [
    {"smiles": "O=C1O[C@H]([C@@H](O)CO)C(O)=C1O", "note": "[ascorbic acid]", "values": [
      {"measurement": "FRAP activity", "setting": "[1]", "result": "present linearly"},
      {"measurement": "IC50", "setting": "[2]", "result": 34.5, "unit": "µM"},
      {"measurement": "IC50", "setting": "[3]", "result": 15.8, "unit": "µM"}
    ]},
    {"smiles": "O=C(O)CCc1c[nH]c2ccccc12", "note": "[IPA, Indole-3-propionic acid]", "values": [
      {"measurement": "concentration showing inhibition against BChE", "setting": "[4]", "result": "≥ 500", "unit": "µM"},
      {"measurement": "concentration showing inhibition against AChE", "setting": "[5]", "result": "≥ 500", "unit": "µM"}
    ]},
    {"smiles": "COc1cc(C=CC(=O)CC(=O)C=Cc2ccc(O)c(OC)c2)ccc1O", "note": "[CUR, 1,7-bis(4-hydroxy-3-methoxyphenyl)-1,6-heptadiene-3,5-dione]", "values": [
      {"measurement": "inhibition against BChE", "setting": "[6]", "result": "did not show inhibition"},
      {"measurement": "IC50", "setting": "[7]", "result": 10, "unit": "µM"},
      {"measurement": "IC50", "setting": "[8]; another study", "result": 67.7, "unit": "µM"},
      {"measurement": "IC50", "setting": "[8]; previous study", "result": 51.8, "unit": "µM"},
      {"measurement": "effect on AChE activity in the ex vivo model", "setting": "[9]", "result": "did not affect AChE activity"},
      {"measurement": "solubility", "setting": "[10]", "result": 0.4, "unit": "µg/mL"}
    ]}
  ]
}
